Assay: Tissue distribution by quantitative whole-body autoradiography (QWBA)
Type: in vivo, male Sprague Dawley and Long-Evans rats
Conditions: for Cmax Ratio (PO/IV) / AUCall Ratio (PO/IV): 15 mg/kg, Group 7 vs Group 4
Protocol: The study utilized 4 groups of male SD rats (albino), and 3 groups of male LE rats (pigmented); a total of 39 rats. All animals were obtained from Hilltop Lab Animals, Inc. (Scottdale, Pa.). […] Rats in Group 5 were administered a single 2-h IV infusion of [^14C]brincidofovir at a target dose of 2 mg/kg. […] Three dosing formulations (one for high dose IV, one for low dose IV, and one for PO dose) were prepared at QPS on the day of dosing. The IV formulation for Groups 1, 2, 3, and 4 contained a vehicle of 10 mM sodium phosphate buffer in 5% dextrose solution at pH 8.0(±0.1).
Each animal, at their respective termination time points, was euthanized for QWBA analysis immediately after blood collection. One rat per time point per Group was euthanized as listed below.
The blood samples were maintained on wet ice (approximately 4° C.) and then centrifuged to obtain plasma within 1 h of the blood collection time. Centrifuge settings were recorded in the study notebook. Duplicate aliquots of plasma (0.050 mL) were analyzed for radioactivity using direct counting by LSC, and residual plasma was stored at approximately −70° C. and was saved for possible future analysis under a separate study protocol. Residual red blood cells were discarded as radioactive waste.
The pinna, distal limbs, hair, and tail were removed from each frozen carcass and each frozen carcass was embedded in an aqueous suspension of approximately 2% (w/v) carboxymethylcellulose and frozen into a block. The blocks were stored at approximately −20° C. prior to sectioning. Each blocked carcass was mounted on the object stage of a cryomicrotome (Leica CM3600 Cryomacrocut, Nussloch, Germany and Vibratome 9800, St. Louis, Mo.) maintained at approximately −20° C. and internal standards (3), which were plasma fortified with [^14C]-glucose at one concentration (approximately 0.05 μCi/mL), were placed into the frozen blocks, prior to sectioning, and were used for section thickness quality control. A number of whole-body sections (approximately 40 μm thick) were taken in the sagittal plane at various levels of interest using a whole-body cryomicrotome set at −20° C. Sagittal sections (20-50 μm thick) of frozen carcasses were exposed to phosphor imaging plates. Regions of images in tissues were converted to concentrations using standards. All of the major tissues, organs, and biological fluids were represented.
Tissue concentration data was determined for the following tissues and/or contents: adipose (brown and white), adrenal gland, bile (in duct), blood (cardiac), bone, bone marrow, brain (cerebrum, cerebellum, medulla), cecum (and contents), large intestine (and contents), epididymis, esophagus, eye (uvea and lens), Harderian gland, heart, kidney (cortex and medulla), liver, lung, lymph node, pancreas, pituitary gland, prostate gland, salivary gland, seminal vesicles, skeletal muscle, skin (pigmented and non-pigmented), small intestine (and contents), stomach (gastric mucosa and contents), spleen, spinal cord, testis, thymus, thyroid, and urinary bladder (and contents).
The imaging plate and sections were placed in light-tight exposure cassettes, in a copper-lined lead safe, for a 4-day exposure at room temperature. […] Quantification was performed by image densitometry using MCD image analysis software (v. 7.0, Interfocus Imaging Ltd) and a standard curve constructed from the integrated response [i.e., Molecular Dynamics Counts per square millimeter (MDC/mm^2)] and the nominal concentrations of the ^14C-calibration standards. The concentrations of radioactivity were expressed as the μg equivalents of [^14C]brincidofovir per gram sample (μg equiv/g). A lower limit of quantification (LLOQ) was applied to the data (See section 6.7.4).
Tissue concentrations that fell below the LLOQ were identified as being below the quantification limit (BQL). Tissue areas that were not visualized on autoradiographic images were identified as no sample (NS) and reported as BQL.

CCCCCCCCCCCCCCCCOCCCOP(=O)(O)CO[C@H](CO)Cn1ccc(N)nc1=O [[^14C] brincidofovir]
Cmax Ratio (PO/IV) (Liver): 0.16 | AUCall (Liver, 2 h IV infusion 15 mg/kg, Group 4): 2149.7645 μg equiv · h/g | Tissue Concentration (168 h) (Liver, 2 h IV infusion 15 mg/kg, Group 4, LLOQ 0.036): 0.451 μg equiv/g | Tissue Concentration (168 h) (Liver, PO 15 mg/kg, Group 7, LLOQ 0.034): 0.393 μg equiv/g | AUCall (Liver, PO 15 mg/kg, Group 7): 1426.6340 μg equiv · h/g | AUCall Ratio (PO/IV) (Lung): 0.29 | Cmax Ratio (PO/IV) (Lung): 0.16 | AUCall (Lung, 2 h IV infusion 15 mg/kg, Group 4): 180.1960 μg equiv · h/g | Tissue Concentration (168 h) (Lung, 2 h IV infusion 15 mg/kg, Group 4, LLOQ 0.036): 0.178 μg equiv/g | Tissue Concentration (168 h) (Lung, PO 15 mg/kg, Group 7, LLOQ 0.034): 0.065 μg equiv/g | AUCall (Lung, PO 15 mg/kg, Group 7): 53.1145 μg equiv · h/g | AUCall Ratio (PO/IV) (Lymph Node): 0.41 | Cmax Ratio (PO/IV) (Lymph Node): 0.11 | AUCall (Lymph Node, 2 h IV infusion 15 mg/kg, Group 4): 208.8530 μg equiv · h/g | Tissue Concentration (168 h) (Lymph Node, 2 h IV infusion 15 mg/kg, Group 4, LLOQ 0.036): 0.247 μg equiv/g | Tissue Concentration (168 h) (Lymph Node, PO 15 mg/kg, Group 7, LLOQ 0.034): 0.129 μg equiv/g | AUCall (Lymph Node, PO 15 mg/kg, Group 7): 85.04 μg equiv · h/g | AUCall Ratio (PO/IV) (Pancreas): 0.29 | Cmax Ratio (PO/IV) (Pancreas): 0.13 | AUCall (Pancreas, 2 h IV infusion 15 mg/kg, Group 4): 36.2010 μg equiv · h/g | Tissue Concentration (168 h) (Pancreas, 2 h IV infusion 15 mg/kg, Group 4, LLOQ 0.036): BQL | Tissue Concentration (168 h) (Pancreas, PO 15 mg/kg, Group 7, LLOQ 0.034): BQL | AUCall (Pancreas, PO 15 mg/kg, Group 7): 10.3720 μg equiv · h/g | AUCall Ratio (PO/IV) (Pituitary Gland): 0.20 | Cmax Ratio (PO/IV) (Pituitary Gland): 0.05 | AUCall (Pituitary Gland, 2 h IV infusion 15 mg/kg, Group 4): 155.1085 μg equiv · h/g | Tissue Concentration (168 h) (Pituitary Gland, 2 h IV infusion 15 mg/kg, Group 4, LLOQ 0.036): 0.189 μg equiv/g | Tissue Concentration (168 h) (Pituitary Gland, PO 15 mg/kg, Group 7, LLOQ 0.034): 0.042 μg equiv/g | AUCall (Pituitary Gland, PO 15 mg/kg, Group 7): 30.5073 μg equiv · h/g | AUCall Ratio (PO/IV) (Prostate Gland): 0.62 | Cmax Ratio (PO/IV) (Prostate Gland): 0.30 | AUCall (Prostate Gland, 2 h IV infusion 15 mg/kg, Group 4): 24.3415 μg equiv · h/g | Tissue Concentration (168 h) (Prostate Gland, 2 h IV infusion 15 mg/kg, Group 4, LLOQ 0.036): BQL | Tissue Concentration (168 h) (Prostate Gland, PO 15 mg/kg, Group 7, LLOQ 0.034): BQL | AUCall (Prostate Gland, PO 15 mg/kg, Group 7): 7.6578 μg equiv · h/g | AUCall Ratio (PO/IV) (Salivary Gland): 0.15 | Cmax Ratio (PO/IV) (Salivary Gland): 0.09 | AUCall (Salivary Gland, 2 h IV infusion 15 mg/kg, Group 4): 60.9180 μg equiv · h/g | Tissue Concentration (168 h) (Salivary Gland, 2 h IV infusion 15 mg/kg, Group 4, LLOQ 0.036): 0.056 μg equiv/g | Tissue Concentration (168 h) (Salivary Gland, PO 15 mg/kg, Group 7, LLOQ 0.034): BQL | AUCall (Salivary Gland, PO 15 mg/kg, Group 7): 9.1933 μg equiv · h/g | AUCall Ratio (PO/IV) (Seminal Vesicles): 0.17 | Cmax Ratio (PO/IV) (Seminal Vesicles): 0.45 | AUCall (Seminal Vesicles, 2 h IV infusion 15 mg/kg, Group 4): 297.3580 μg equiv · h/g | Tissue Concentration (168 h) (Seminal Vesicles, 2 h IV infusion 15 mg/kg, Group 4, LLOQ 0.036): 0.361 μg equiv/g | Tissue Concentration (168 h) (Seminal Vesicles, PO 15 mg/kg, Group 7, LLOQ 0.034): 0.063 μg equiv/g | AUCall (Seminal Vesicles, PO 15 mg/kg, Group 7): 50.2500 μg equiv · h/g | AUCall Ratio (PO/IV) (Skeletal Muscle): 0.13 | Cmax Ratio (PO/IV) (Skeletal Muscle): 0.16 | AUCall (Skeletal Muscle, 2 h IV infusion 15 mg/kg, Group 4): 10.3485 μg equiv · h/g | Tissue Concentration (168 h) (Skeletal Muscle, 2 h IV infusion 15 mg/kg, Group 4, LLOQ 0.036): BQL | Tissue Concentration (168 h) (Skeletal Muscle, PO 15 mg/kg, Group 7, LLOQ 0.034): BQL | AUCall (Skeletal Muscle, PO 15 mg/kg, Group 7): 1.3265 μg equiv · h/g | AUCall Ratio (PO/IV) (Skin (non-pigmented)): 0.10 | Cmax Ratio (PO/IV) (Skin (non-pigmented)): 0.17 | AUCall (Skin (non-pigmented), 2 h IV infusion 15 mg/kg, Group 4): 146.2340 μg equiv · h/g
